Test results published in ChEMBL document CHEMBL5463727, “Data for DCP probe SGK3-PROTAC1” (2023).

Tests used:
Details in all cases: Compound concentration 1.0 uM
[1] = molecular target: Fibroblast growth factor receptor 1 (Homo sapiens) (UniProt P11362); assay: % Activity remaining of FGF-R1 in the Dundee kinase panel at 1.0 µM
[2] = molecular target: Ephrin type-B receptor 1 (Homo sapiens) (UniProt P54762); assay: % Activity remaining of EPH-B1 in the Dundee kinase panel at 1.0 µM
[3] = molecular target: Serine/threonine-protein kinase OSR1 (Homo sapiens) (UniProt O95747); assay: % Activity remaining of OSR1 in the Dundee kinase panel at 1.0 µM
Serine/threonine-protein kinase OSR1 (Homo sapiens), sequence (O95747 2-527 limits assumed): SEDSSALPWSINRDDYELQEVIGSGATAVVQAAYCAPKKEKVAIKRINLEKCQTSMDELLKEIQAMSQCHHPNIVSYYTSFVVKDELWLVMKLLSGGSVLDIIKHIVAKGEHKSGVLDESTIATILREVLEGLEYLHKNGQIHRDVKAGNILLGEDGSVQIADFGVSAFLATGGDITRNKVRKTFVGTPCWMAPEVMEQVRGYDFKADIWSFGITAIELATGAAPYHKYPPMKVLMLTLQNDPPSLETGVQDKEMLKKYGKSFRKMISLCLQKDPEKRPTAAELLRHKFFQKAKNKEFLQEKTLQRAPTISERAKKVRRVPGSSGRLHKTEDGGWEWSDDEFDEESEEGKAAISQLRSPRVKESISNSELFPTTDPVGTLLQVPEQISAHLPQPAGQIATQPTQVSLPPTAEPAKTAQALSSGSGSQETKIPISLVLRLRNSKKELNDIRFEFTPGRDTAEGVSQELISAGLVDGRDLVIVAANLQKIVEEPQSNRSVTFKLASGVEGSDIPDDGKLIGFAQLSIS

[4] = molecular target: Serine/threonine-protein kinase TAO1 (Homo sapiens) (UniProt Q7L7X3); assay: % Activity remaining of TAO1 in the Dundee kinase panel at 1.0 µM
[5] = molecular target: Insulin receptor-related protein (Homo sapiens) (UniProt P14616); assay: % Activity remaining of IRR in the Dundee kinase panel at 1.0 µM
[6] = molecular target: Serine/threonine-protein kinase 33 (Homo sapiens) (UniProt Q9BYT3); assay: % Activity remaining of STK33 in the Dundee kinase panel at 1.0 µM
[7] = molecular target: Aurora kinase B (Homo sapiens) (UniProt Q96GD4); assay: % Activity remaining of Aurora B in the Dundee kinase panel at 1.0 µM
[8] = molecular target: Protein-tyrosine kinase 6 (Homo sapiens) (UniProt Q13882); assay: % Activity remaining of BRK in the Dundee kinase panel at 1.0 µM
[9] = molecular target: Receptor-interacting serine/threonine-protein kinase 2 (Homo sapiens) (UniProt O43353); assay: % Activity remaining of RIPK2 in the Dundee kinase panel at 1.0 µM
[10] = molecular target: Tyrosine-protein kinase BTK (Homo sapiens) (UniProt Q06187); assay: % Activity remaining of BTK in the Dundee kinase panel at 1.0 µM
Tyrosine-protein kinase BTK (Homo sapiens), sequence (Q06187 whole entry): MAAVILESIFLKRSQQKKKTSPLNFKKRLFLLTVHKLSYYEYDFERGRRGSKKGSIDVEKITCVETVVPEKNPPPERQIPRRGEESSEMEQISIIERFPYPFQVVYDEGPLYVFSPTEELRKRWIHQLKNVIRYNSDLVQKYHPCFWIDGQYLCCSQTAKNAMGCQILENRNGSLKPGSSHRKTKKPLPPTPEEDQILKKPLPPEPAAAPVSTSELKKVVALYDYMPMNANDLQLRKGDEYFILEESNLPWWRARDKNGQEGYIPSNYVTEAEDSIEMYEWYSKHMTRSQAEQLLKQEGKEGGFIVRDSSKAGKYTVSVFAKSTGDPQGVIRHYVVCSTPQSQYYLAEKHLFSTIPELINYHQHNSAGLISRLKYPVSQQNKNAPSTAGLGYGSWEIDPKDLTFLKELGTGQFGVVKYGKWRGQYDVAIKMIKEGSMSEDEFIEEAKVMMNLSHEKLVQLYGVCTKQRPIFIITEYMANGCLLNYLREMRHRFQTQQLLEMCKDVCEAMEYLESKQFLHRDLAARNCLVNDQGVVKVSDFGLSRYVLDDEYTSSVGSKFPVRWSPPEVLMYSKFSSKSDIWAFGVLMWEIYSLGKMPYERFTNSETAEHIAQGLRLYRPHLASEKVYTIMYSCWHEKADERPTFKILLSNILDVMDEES

[11] = molecular target: Serine/threonine-protein kinase pim-2 (Homo sapiens) (UniProt Q9P1W9); assay: % Activity remaining of PIM2 in the Dundee kinase panel at 1.0 µM
Serine/threonine-protein kinase pim-2 (Homo sapiens), sequence (Q9P1W9 whole entry, looked up): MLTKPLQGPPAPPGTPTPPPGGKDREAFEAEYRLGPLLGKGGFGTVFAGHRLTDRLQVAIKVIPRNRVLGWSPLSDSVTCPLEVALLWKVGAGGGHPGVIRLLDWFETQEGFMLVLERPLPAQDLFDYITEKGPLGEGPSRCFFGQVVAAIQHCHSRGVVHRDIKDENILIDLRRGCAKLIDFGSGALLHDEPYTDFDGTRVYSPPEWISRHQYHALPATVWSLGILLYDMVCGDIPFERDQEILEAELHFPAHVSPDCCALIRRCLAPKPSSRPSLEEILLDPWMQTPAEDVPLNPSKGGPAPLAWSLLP

[12] = molecular target: Dual specificity tyrosine-phosphorylation-regulated kinase 2 (Homo sapiens) (UniProt Q92630); assay: % Activity remaining of DYRK2 in the Dundee kinase panel at 1.0 µM
Dual specificity tyrosine-phosphorylation-regulated kinase 2 (Homo sapiens), sequence (Q92630 whole entry): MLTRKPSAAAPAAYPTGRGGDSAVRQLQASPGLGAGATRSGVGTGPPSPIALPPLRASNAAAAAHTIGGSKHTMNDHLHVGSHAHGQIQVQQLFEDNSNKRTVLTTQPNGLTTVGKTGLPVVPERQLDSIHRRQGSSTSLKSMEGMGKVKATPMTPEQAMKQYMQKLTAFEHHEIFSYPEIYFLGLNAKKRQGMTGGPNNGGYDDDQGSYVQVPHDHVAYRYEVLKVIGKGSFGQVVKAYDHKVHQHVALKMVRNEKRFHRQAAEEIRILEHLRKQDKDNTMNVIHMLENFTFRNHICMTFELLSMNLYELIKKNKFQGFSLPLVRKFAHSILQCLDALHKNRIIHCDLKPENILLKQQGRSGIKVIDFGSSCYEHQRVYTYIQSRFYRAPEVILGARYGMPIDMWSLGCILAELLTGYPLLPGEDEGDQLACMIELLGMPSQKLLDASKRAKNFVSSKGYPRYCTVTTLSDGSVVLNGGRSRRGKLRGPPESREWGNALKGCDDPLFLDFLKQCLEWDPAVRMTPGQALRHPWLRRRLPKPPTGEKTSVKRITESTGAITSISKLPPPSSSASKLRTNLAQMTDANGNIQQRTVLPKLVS

[13] = molecular target: Tyrosine-protein kinase ZAP-70 (Homo sapiens) (UniProt P43403); assay: % Activity remaining of ZAP70 in the Dundee kinase panel at 1.0 µM
Tyrosine-protein kinase ZAP-70 (Homo sapiens), sequence (P43403 whole entry): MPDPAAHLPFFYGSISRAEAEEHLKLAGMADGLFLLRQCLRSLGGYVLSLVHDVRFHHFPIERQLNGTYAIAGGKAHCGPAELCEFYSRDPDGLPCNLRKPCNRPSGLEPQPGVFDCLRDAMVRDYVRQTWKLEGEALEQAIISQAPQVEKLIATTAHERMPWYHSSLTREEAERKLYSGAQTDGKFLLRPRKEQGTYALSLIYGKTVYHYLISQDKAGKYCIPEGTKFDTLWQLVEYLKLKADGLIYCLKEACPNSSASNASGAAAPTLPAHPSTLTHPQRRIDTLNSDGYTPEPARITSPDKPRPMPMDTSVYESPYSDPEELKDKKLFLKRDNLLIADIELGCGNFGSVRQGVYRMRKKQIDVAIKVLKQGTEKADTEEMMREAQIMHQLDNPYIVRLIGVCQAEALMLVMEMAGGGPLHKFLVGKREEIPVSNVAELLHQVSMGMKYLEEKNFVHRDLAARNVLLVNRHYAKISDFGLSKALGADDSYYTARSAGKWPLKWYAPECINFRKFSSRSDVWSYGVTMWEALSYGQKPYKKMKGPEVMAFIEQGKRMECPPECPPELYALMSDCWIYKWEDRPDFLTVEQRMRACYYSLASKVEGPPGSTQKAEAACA

[14] = molecular target: Tyrosine-protein kinase SYK (Homo sapiens) (UniProt P43405); assay: % Activity remaining of SYK in the Dundee kinase panel at 1.0 µM
[15] = molecular target: Mitogen-activated protein kinase kinase kinase 9 (Homo sapiens) (UniProt P80192); assay: % Activity remaining of MLK1 in the Dundee kinase panel at 1.0 µM
Mitogen-activated protein kinase kinase kinase 9 (Homo sapiens), sequence (P80192 whole entry, looked up): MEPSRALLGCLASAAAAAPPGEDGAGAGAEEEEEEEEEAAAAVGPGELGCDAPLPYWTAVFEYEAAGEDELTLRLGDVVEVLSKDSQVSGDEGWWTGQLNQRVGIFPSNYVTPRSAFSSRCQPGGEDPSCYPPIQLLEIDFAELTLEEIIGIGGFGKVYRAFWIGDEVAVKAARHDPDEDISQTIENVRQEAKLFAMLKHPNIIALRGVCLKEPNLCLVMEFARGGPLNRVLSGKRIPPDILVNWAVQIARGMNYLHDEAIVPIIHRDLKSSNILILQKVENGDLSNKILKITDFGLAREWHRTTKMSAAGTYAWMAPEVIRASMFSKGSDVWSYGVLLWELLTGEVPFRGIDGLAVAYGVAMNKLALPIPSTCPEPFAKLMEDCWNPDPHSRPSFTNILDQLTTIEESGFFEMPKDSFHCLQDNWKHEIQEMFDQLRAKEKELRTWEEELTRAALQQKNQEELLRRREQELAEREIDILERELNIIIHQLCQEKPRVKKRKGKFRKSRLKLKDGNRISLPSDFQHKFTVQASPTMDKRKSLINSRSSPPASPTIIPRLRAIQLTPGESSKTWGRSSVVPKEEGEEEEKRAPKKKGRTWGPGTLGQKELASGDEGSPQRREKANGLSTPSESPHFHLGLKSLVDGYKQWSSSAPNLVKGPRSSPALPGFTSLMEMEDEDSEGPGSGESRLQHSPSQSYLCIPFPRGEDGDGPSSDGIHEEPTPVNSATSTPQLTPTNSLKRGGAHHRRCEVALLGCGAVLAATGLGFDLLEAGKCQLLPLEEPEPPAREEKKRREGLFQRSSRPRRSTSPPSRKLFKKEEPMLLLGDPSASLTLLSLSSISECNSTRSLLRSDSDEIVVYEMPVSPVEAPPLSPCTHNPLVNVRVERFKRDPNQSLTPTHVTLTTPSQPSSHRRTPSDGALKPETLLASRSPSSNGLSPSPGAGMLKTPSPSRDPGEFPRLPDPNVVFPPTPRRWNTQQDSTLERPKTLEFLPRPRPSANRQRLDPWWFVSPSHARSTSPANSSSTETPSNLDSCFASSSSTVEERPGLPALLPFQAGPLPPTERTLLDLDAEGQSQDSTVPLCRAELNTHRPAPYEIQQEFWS

[16] = molecular target: MAP/microtubule affinity-regulating kinase 3 (Homo sapiens) (UniProt P27448); assay: % Activity remaining of MARK3 in the Dundee kinase panel at 1.0 µM
[17] = molecular target: Mitogen-activated protein kinase kinase kinase kinase 3 (Homo sapiens) (UniProt Q8IVH8); assay: % Activity remaining of MAP4K3 in the Dundee kinase panel at 1.0 µM
[18] = molecular target: Mitogen-activated protein kinase kinase kinase 7 (Homo sapiens) (UniProt O43318); assay: % Activity remaining of TAK1 in the Dundee kinase panel at 1.0 µM
[19] = molecular target: Serine/threonine-protein kinase ULK2 (Homo sapiens) (UniProt Q8IYT8); assay: % Activity remaining of ULK2 in the Dundee kinase panel at 1.0 µM
[20] = molecular target: Mitogen-activated protein kinase 12 (Homo sapiens) (UniProt P53778); assay: % Activity remaining of p38 gamma MAPK in the Dundee kinase panel at 1.0 µM
[21] = molecular target: Serine/threonine-protein kinase pim-1 (Homo sapiens) (UniProt P11309); assay: % Activity remaining of PIM1 in the Dundee kinase panel at 1.0 µM
[22] = molecular target: Ephrin type-A receptor 4 (Homo sapiens) (UniProt P54764); assay: % Activity remaining of EPH-A4 in the Dundee kinase panel at 1.0 µM
[23] = molecular target: Ribosomal protein S6 kinase alpha-3 (Homo sapiens) (UniProt P51812); assay: % Activity remaining of RSK2 in the Dundee kinase panel at 1.0 µM
[24] = molecular target: Serine/threonine-protein kinase Chk1 (Homo sapiens) (UniProt O14757); assay: % Activity remaining of CHK1 in the Dundee kinase panel at 1.0 µM
[25] = molecular target: Mitogen-activated protein kinase kinase kinase kinase 2 (Homo sapiens) (UniProt Q12851); assay: % Activity remaining of GCK in the Dundee kinase panel at 1.0 µM
[26] = molecular target: Proto-oncogene tyrosine-protein kinase Src (Homo sapiens) (UniProt P12931); assay: % Activity remaining of Src in the Dundee kinase panel at 1.0 µM
[27] = molecular target: Mitogen-activated protein kinase 3 (Homo sapiens) (UniProt P27361); assay: % Activity remaining of ERK1 in the Dundee kinase panel at 1.0 µM
[28] = molecular target: Dual specificity mitogen-activated protein kinase kinase 1 (Homo sapiens) (UniProt Q02750); assay: % Activity remaining of MKK1 in the Dundee kinase panel at 1.0 µM
[29] = molecular target: RAC-beta serine/threonine-protein kinase (Homo sapiens) (UniProt P31751); assay: % Activity remaining of PKB beta in the Dundee kinase panel at 1.0 µM
[30] = molecular target: Serine/threonine-protein kinase PLK1 (Homo sapiens) (UniProt P53350); assay: % Activity remaining of PLK1 in the Dundee kinase panel at 1.0 µM
[31] = molecular target: Tyrosine-protein kinase Lck (Homo sapiens) (UniProt P06239); assay: % Activity remaining of Lck in the Dundee kinase panel at 1.0 µM
[32] = molecular target: Serine/threonine-protein kinase D1 (Homo sapiens) (UniProt Q15139); assay: % Activity remaining of PKD1 in the Dundee kinase panel at 1.0 µM
[33] = molecular target: Platelet-derived growth factor receptor alpha (Homo sapiens) (UniProt P16234); assay: % Activity remaining of PDGFRA in the Dundee kinase panel at 1.0 µM
[34] = molecular target: Discoidin domain-containing receptor 2 (Homo sapiens) (UniProt Q16832); assay: % Activity remaining of DDR2 in the Dundee kinase panel at 1.0 µM
Discoidin domain-containing receptor 2 (Homo sapiens), sequence (Q16832 whole entry, the tested form may be a part, canonical isoform): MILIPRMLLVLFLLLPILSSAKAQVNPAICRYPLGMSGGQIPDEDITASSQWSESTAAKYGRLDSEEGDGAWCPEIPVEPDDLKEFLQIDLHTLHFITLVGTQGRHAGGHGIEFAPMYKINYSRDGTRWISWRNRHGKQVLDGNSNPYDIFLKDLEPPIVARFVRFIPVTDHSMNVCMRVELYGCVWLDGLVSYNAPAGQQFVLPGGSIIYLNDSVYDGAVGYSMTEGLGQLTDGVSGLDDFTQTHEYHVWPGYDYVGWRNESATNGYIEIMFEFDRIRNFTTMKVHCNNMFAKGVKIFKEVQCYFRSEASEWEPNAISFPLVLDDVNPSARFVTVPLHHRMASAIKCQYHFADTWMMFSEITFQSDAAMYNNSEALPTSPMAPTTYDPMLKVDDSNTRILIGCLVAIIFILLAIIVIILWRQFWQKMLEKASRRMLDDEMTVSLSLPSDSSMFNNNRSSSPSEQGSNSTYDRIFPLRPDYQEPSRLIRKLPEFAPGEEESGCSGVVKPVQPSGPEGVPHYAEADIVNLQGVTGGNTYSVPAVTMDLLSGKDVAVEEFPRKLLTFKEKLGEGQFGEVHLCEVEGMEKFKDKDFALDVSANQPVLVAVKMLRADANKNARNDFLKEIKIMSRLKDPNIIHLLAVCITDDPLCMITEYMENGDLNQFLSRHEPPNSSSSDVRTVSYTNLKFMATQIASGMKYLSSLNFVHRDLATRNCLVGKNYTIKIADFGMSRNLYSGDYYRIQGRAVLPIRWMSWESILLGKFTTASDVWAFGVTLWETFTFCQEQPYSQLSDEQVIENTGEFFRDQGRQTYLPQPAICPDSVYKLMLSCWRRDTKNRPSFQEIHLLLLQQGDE

[35] = molecular target: Phosphorylase b kinase regulatory subunit alpha, liver isoform (Homo sapiens) (UniProt P46019); assay: % Activity remaining of PHK in the Dundee kinase panel at 1.0 µM
[36] = molecular target: Tyrosine-protein kinase JAK2 (Homo sapiens) (UniProt O60674); assay: % Activity remaining of JAK2 in the Dundee kinase panel at 1.0 µM
[37] = molecular target: Eukaryotic translation initiation factor 2-alpha kinase 3 (Homo sapiens) (UniProt Q9NZJ5); assay: % Activity remaining of EIF2AK3 in the Dundee kinase panel at 1.0 µM
[38] = molecular target: Tyrosine-protein kinase ABL1 (Homo sapiens) (UniProt P00519); assay: % Activity remaining of ABL in the Dundee kinase panel at 1.0 µM
[39] = molecular target: Mitogen-activated protein kinase 1 (Homo sapiens) (UniProt P28482); assay: % Activity remaining of ERK2 in the Dundee kinase panel at 1.0 µM
Mitogen-activated protein kinase 1 (Homo sapiens), sequence (P28482 whole entry): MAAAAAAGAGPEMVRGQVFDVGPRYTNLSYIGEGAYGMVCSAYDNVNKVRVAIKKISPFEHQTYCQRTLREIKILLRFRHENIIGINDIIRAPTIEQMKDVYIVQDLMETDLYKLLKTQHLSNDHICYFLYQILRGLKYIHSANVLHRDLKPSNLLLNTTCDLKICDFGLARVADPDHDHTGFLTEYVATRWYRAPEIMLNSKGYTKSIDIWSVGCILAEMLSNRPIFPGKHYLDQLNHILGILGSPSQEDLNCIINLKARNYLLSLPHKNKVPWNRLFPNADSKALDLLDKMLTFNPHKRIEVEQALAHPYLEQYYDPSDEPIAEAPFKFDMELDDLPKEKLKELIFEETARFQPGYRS

Measured: % Activity remaining

Cc1ccc(F)c(S(=O)(=O)Nc2ccc(-c3nc(OC[C@H]4CN(CCCCCCOCCOCCOCC(=O)N[C@H](C(=O)N5C[C@@H](O)C[C@H]5C(=O)NCc5ccc(-c6scnc6C)cc5)C(C)(C)C)CCO4)c4cn[nH]c4n3)cc2)c1
inactive: [1] 106% | [2] 108% | [3] 118% | [4] 105% | [5] 89.9% | [6] 109% | [7] 94.7% | [8] 105% | [9] 94.2% | [10] 90.6% | [11] 105% | [12] 97.3% | [13] 74.7% | [14] 103% | [15] 93.9% | [16] 109% | [17] 95.5% | [18] 107% | [19] 117% | [20] 127% | [21] 96.5% | [22] 89.4% | [23] 109% | [24] 126% | [25] 96.3% | [26] 86.8% | [27] 101% | [28] 102% | [29] 101% | [30] 98.4% | [31] 116% | [32] 91.7% | [33] 94.8% | [34] 134% | [35] 122% | [36] 93.6% | [37] 111% | [38] 112% | [39] 95.2%

Cc1ccc(F)c(S(=O)(=O)Nc2ccc(-c3nc(OC[C@H]4CN(CCCCCCOCCOCCOCC(=O)N[C@H](C(=O)N5C[C@H](O)C[C@H]5C(=O)NCc5ccc(-c6scnc6C)cc5)C(C)(C)C)CCO4)c4cn[nH]c4n3)cc2)c1
inactive: [1] 108% | [2] 99.9% | [3] 103% | [4] 99% | [5] 103% | [6] 110% | [7] 92.5% | [8] 86.8% | [9] 88.4% | [10] 96.9% | [11] 98.2% | [12] 102% | [13] 75% | [14] 116% | [15] 81.9% | [16] 98.4% | [17] 98.8% | [18] 108% | [19] 103% | [20] 107% | [21] 94.5% | [22] 106% | [23] 120% | [24] 111% | [25] 99% | [26] 83.4% | [27] 103% | [28] 106% | [29] 98.7% | [30] 97.9% | [31] 124% | [32] 94% | [33] 101% | [34] 114% | [35] 113% | [36] 95.4% | [37] 106% | [38] 111% | [39] 104%
